Several values for one entry are separate records, joined by “and”; a condition that tells them apart may be missing. Equal values may be shown once. Read-outs that look alike come from different tables or passages of the source.
Experiments:
CYP3A4 = test: in vitro
Protocol: (§1) (OHBUP-[D6]) and 5 nM 4′-hydroxydiclofenac-[^13C6] (OHDIC-[^13C6]) as internal standards (ISs). […]
(§2) standard addition experiments. Each group included four concentration levels. For the PK […]
(§3) The probe compounds, viz. […]
(§4) chosen after incubating all the recruited substrates. In order to assure the linear relationship […]
(§5) The incubation system was also optimized in terms of substrate concentrations. The substrates concentrations of […]

CYP2D6 = test: in vitro; conditions: Sprague-Dawley, rat
Protocol: as §1, §2, §3, §4, §5

CYP2B6 = test: In vitro cocktail CYP450 activity assay in rat liver microsomes, CYP2B6 (bupropion probe); conditions: Sprague-Dawley, rat, pooled rat liver microsomes, pH 7.4, probe bupropion (90 µM, in seven-probe cocktail), IC50 CYP2B6, single components; RLM 0.2 mg/mL, 15 min, triplicate, mean ± SD
Protocol: as §1, §2, §3, §4, §5

CYP2C9 = test: In vitro cocktail CYP450 activity assay in rat liver microsomes, CYP2C9 (tolbutamide probe)
Protocol: as §1, §2, §3, §4, §5

CYP2C19 = test: In vitro cocktail CYP450 activity assay in rat liver microsomes, CYP2C19 (omeprazole probe)
Protocol: as §1, §2, §3, §4, §5

in vivo = test: in vivo; design: species or system Sprague-Dawley (SD) rats; conditions: Sprague-Dawley, plasma, rat
Protocol: At each time, 0.5 mL of blood was collected in the heparin sodium tubes. Plasma was separated by centrifugation at 4000 rpm for 10 min and stored below −80 °C until bioanalysis. Oasis PRiME HLB SPE cartridges (1 cc/30 mg, Waters, Milford, MA, USA) were used to process the plasma samples (Supplementary Materials).
The generic layout of instrumentation setup of the LVDI-UHPLC-MS/MS was conducted on a Shimadzu UHPLC system consisting of two LC-20ADXR pumps, a DGU-20A3R degasser, and a CBM-20A controller (Kyoto, Japan) with a SCIEX 4500 QTRAP mass spectrometer mounted with an electron spray ionization (ESI) interface as well as an electronic 6-port/2-channel valve (Foster City, CA, USA). Analyst software package (version 1.6.2, SCIEX) was implemented to control and synchronize the entire system, and also for data acquisition and processing. A single analytical run was fragmented into two phases, namely, loading and elution phases, by switching the electronic valve (Figure 2). At the loading phase, the valve was maintained at A-channel. The specimen aliquot of large volume delivered from the auto-sampler was captured onto a guard column. Meanwhile, the pumps were responsible for delivering the mobile phase at a high flow rate, aiming to dilute the sample solvent, thus facilitating the candidate constituents to concentrate on the pre-guard column. Then, the valve was automatically switched to the B-channel to trigger the elution phase. The trapped components were flushed from the pre-guard column into an analytical column, and underwent multiple reaction monitoring (MRM) analysis on the optimized LC gradients. The detailed information of LVDI-UHPLC-MS/MS analysis for pharmacokinetic and cocktail studies is shown in the Supplementary Materials section.

CYP1A2 [1] = target: T1, CYP1A2 (Rattus norvegicus, UniProt P04799); test: In vitro cocktail CYP450 activity assay in rat liver microsomes, CYP1A2 (phenacetin probe)
T1 sequence (P04799 1-513): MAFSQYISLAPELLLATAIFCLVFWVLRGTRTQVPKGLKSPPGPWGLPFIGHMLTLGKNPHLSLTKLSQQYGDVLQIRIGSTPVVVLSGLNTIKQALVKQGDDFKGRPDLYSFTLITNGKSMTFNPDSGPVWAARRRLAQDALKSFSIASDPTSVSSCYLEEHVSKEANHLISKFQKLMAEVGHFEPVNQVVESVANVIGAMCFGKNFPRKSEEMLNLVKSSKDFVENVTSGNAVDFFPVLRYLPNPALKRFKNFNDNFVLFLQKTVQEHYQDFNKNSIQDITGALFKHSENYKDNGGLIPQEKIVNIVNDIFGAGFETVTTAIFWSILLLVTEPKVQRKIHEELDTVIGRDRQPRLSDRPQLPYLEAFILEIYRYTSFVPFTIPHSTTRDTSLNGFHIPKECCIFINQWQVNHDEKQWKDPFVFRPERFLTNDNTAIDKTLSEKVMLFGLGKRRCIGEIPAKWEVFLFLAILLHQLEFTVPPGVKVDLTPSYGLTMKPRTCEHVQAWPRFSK
Protocol: as §1, §2, §3, §4, §5

CYP2E1 [2] = target: T2, CYP2E1 (Rattus norvegicus, UniProt P05182); conditions: Sprague-Dawley, rat, 15 min, pH 7.4
T2 sequence (P05182 whole entry): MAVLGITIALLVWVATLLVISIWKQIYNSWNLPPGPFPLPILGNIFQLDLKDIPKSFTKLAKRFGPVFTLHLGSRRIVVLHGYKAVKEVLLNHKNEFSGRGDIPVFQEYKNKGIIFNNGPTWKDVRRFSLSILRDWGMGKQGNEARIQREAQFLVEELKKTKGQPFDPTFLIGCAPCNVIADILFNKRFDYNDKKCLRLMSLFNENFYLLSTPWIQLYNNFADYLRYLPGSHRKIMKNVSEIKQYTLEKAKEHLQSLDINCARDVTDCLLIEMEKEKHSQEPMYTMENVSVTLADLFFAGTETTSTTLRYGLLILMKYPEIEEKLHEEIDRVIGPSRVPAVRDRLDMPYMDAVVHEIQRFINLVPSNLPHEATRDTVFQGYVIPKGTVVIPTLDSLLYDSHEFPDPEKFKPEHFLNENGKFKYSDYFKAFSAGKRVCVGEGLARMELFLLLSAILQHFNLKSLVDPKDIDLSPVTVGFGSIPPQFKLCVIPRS

CYP2E1 [3] = target: T2, CYP2E1; conditions: IC50 CYP2E1, single components; RLM 0.2 mg/mL, 15 min, triplicate, mean ± SD
CYP1A2 [4] = target: T1, CYP1A2; conditions: read-out: Reported IC50; positive inhibitor of CYP1A2, literature ref 9, 10,11; cited from earlier work
[5] = at the Cmax level in rat plasma, calculated from the dose–response curve

Compound: CC(C)=CCC[C@](C)(O[C@@H]1O[C@H](CO)[C@@H](O)[C@H](O)[C@H]1O)[C@H]1CC[C@]2(C)[C@@H]1[C@H](O)C[C@@H]1[C@@]3(C)CC[C@H](O)C(C)(C)[C@@H]3[C@@H](O[C@@H]3O[C@H](CO)[C@@H](O)[C@H](O)[C@H]3O[C@@H]3OC[C@@H](O)[C@H](O)[C@H]3O)C[C@]12C [NGR1, notoginsenoside R1]
- IC50 (CYP3A4; Sprague-Dawley, rat, microsomes, pH 7.4, IC50 CYP3A4, single components, RLM 0.2 mg/mL, 15 min, triplicate, mean ± SD): 84.6 ± 1.79 µM
- Response (% control) CYP3A4 (CYP3A4; [5]): 99.94 % control
- Response (% control) CYP2D6 (CYP2D6; 15 min, pH 7.4): 92.76 % control
- IC50 at 15 min (CYP2D6; microsomes, pH 7.4, IC50 CYP2D6): 20.4 ± 3.45 µM
- IC50 at 15 min (CYP2B6): > 200 µM
- IC50 at 15 min (CYP2C9; Sprague-Dawley, rat, pooled rat liver microsomes, pH 7.4, probe tolbutamide (18 µM, in seven-probe cocktail), IC50 CYP2C9, single components, RLM 0.2 mg/mL, 15 min, triplicate, mean ± SD): 154 ± 16.6 µM
- Response (% control) CYP2C9 (CYP2C9; [5]): 99.99 % control
- IC50 at 15 min (CYP2C19; Sprague-Dawley, rat, pooled rat liver microsomes, pH 7.4, probe omeprazole (1.07 µM, in seven-probe cocktail), IC50 CYP2C19, single components, RLM 0.2 mg/mL, 15 min, triplicate, mean ± SD): 108 ± 29.6 µM
- Response (% control) CYP2C19 (CYP2C19; [5]): 92.32 % control
- concentration at […] (in vivo; 0.083 h after oral CNP): 0.26 ± 0.06 ng/mL
- concentration at 0.25 h (in vivo; 0.25 h after oral CNP): 0.36 ± 0.05 ng/mL
- concentration at 0.5 h (in vivo; 0.5 h after oral CNP): 0.53 ± 0.29 ng/mL
- concentration at 1 h (in vivo; 1 h after oral CNP): 0.45 ± 0.19 ng/mL
- concentration at 1.5 h (in vivo; 1.5 h after oral CNP): 0.33 ± 0.12 ng/mL
- concentration at 2 h (in vivo; 2 h after oral CNP): 0.32 ± 0.05 ng/mL
- concentration at 3 h (in vivo; 3 h after oral CNP): 0.44 ± 0.15 ng/mL
- concentration at 4 h (in vivo; 4 h after oral CNP): 0.38 ± 0.12 ng/mL
- concentration at 6 h (in vivo; 6 h after oral CNP): 0.37 ± 0.17 ng/mL
- concentration at 8 h (in vivo; 8 h after oral CNP): 0.46 ± 0.15 ng/mL
- concentration at 12 h (in vivo; 12 h after oral CNP): 0.38 ± 0.18 ng/mL
- concentration at 24 h (in vivo; 24 h after oral CNP): 0.17 ± 0.06 ng/mL
- AUC(0-inf) (in vivo; po, 60 mg/kg): 8.14 ± 3.6 ng·h/mL
- AUC(0-t) (in vivo; po, 60 mg/kg): 6.3 ± 2.41 ng·h/mL
- Cmax (in vivo; po, 60 mg/kg): 0.64 ± 0.18 ng/mL
- Tmax (in vivo; po, 60 mg/kg): 1.15 ± 1.06 h
- half-life (in vivo; po, 60 mg/kg): 10.5 ± 3.06 h
- concentration at 0.25 h (in vivo; po, 60 mg·kg^−1): 0.46 ± 0.18 ng/mL
- concentration at 0.5 h (in vivo; po, 60 mg·kg^−1): 0.5 ± 0.15 ng/mL
- concentration at 1 h (in vivo; po, 60 mg·kg^−1): 0.45 ± 0.14 ng/mL
- concentration at 1.5 h (in vivo; po, 60 mg·kg^−1): 0.28 ± 0.1 ng/mL
- concentration at 2 h (in vivo; po, 60 mg·kg^−1): 0.25 ± 0.11 ng/mL
- concentration at 3 h (in vivo; po, 60 mg·kg^−1): 0.46 ± 0.2 ng/mL
- concentration at 4 h (in vivo; po, 60 mg·kg^−1): 0.38 ± 0.26 ng/mL
- concentration at 6 h (in vivo; po, 60 mg·kg^−1): 0.25 ± 0.06 ng/mL
- concentration at 8 h (in vivo; po, 60 mg·kg^−1): 0.35 ± 0.06 ng/mL
- concentration at 12 h (in vivo; po, 60 mg·kg^−1): 0.35 ± 0.14 ng/mL
- concentration at 24 h (in vivo; po, 60 mg·kg^−1): 0.14 ± 0.04 ng/mL
- IC50 (CYP1A2 [1]; IC50 CYP1A2, single components, RLM 0.2 mg/mL, 15 min, triplicate, mean ± SD): 112 ± 7.72 µM
- Response (% control) CYP2E1 (CYP2E1 [2]): 99.99 % control
- IC50 (CYP2E1 [3]): 122 ± 8.96 µM

Compound: Cc1nc2c([nH]1)c(=O)n(C)c(=O)n2Cc1ccco1 [FUR, furafylline]
- IC50 (CYP1A2 [1]; Tested IC50): 0.597 ± 0.0514 µM
- IC50 (CYP1A2 [4]): 1.3 µM and 1.76 to 13.9 µM

From publication PMC7076352 (Pharmaceutics, 2020)
